Reference: ChEMBL document CHEMBL5634139, “Novel substituted 4-(Arylethynyl)-Pyrrolo[2,3-d]pyrimidines negative allosteric modulators (NAMs) of the metabotropic glutamate receptor subtype 5 (mGlu5) Treat depressive disorder in mice” (Eur J Med Chem, 2023)
Active and inactive are the calls of the source. No cut-off for these calls is given here.

Legend:
[1] = target: Metabotropic glutamate receptor 5 (Rattus norvegicus, UniProt P31424); test: Negative allosteric modulation of rat mGluR5 expressed in HEK293 assessed as decrease in intracellular calcium incubated for 30 mins by Fluo-6 calcium dye based FLIPR assay; assay type: functional, cell-based
Metabotropic glutamate receptor 5, sequence (P31424 whole entry): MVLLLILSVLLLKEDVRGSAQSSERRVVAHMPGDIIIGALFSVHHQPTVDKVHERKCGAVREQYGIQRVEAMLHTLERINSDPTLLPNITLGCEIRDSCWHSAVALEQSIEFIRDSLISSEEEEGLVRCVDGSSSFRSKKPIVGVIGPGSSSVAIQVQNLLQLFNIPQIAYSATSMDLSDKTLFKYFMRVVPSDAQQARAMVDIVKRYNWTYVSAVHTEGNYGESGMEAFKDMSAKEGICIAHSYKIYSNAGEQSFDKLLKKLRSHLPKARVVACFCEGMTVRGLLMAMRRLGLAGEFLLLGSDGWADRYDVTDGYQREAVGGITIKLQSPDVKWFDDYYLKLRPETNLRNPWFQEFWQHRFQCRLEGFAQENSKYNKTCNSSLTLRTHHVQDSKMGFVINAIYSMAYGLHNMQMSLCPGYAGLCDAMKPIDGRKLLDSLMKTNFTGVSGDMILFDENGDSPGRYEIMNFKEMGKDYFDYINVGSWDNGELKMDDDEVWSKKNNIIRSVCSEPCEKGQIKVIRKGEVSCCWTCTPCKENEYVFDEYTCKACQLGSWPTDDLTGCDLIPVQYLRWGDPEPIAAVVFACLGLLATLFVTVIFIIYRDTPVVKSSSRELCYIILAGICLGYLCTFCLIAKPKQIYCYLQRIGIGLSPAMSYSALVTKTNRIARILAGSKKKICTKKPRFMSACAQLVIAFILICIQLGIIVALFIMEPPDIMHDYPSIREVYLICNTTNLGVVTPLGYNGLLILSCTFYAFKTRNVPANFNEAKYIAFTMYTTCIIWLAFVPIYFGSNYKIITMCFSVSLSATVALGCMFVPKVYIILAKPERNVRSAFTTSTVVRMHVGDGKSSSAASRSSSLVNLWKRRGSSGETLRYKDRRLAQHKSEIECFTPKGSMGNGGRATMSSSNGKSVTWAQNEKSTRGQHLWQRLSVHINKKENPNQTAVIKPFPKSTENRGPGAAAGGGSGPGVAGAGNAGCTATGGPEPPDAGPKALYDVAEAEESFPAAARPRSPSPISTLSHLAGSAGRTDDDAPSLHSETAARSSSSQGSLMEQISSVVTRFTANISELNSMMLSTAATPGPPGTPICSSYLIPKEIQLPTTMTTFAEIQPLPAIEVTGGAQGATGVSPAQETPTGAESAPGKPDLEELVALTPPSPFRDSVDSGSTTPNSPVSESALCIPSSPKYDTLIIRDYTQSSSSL

[2] = system: Mus musculus; test: Antidepressant activity in chronic unpredictable mild stress induced depression C57BL/6J mouse model assessed as upregulation of 5-HT level in peripheral serum at 5 mg/kg,IG administration for 3 days by ELISA; assay type: functional, organism-based; conditions: time 3.0 day
[3] = system: Mus musculus; test: Antidepressant activity in chronic unpredictable mild stress induced depression C57BL/6J mouse model assessed as increase in time spent in central area at 5 mg/kg,IG administration for 3 days by open field test; assay type: functional, organism-based; conditions: time 3.0 day
[4] = system: Mus musculus; test: Antidepressant activity in chronic unpredictable mild stress induced depression C57BL/6J mouse model assessed as increase in frequency entering the central area at 5 mg/kg,IG administration for 3 days by open field test; assay type: functional, organism-based; conditions: time 3.0 day
[5] = system: Mus musculus; test: Antidepressant activity in chronic unpredictable mild stress induced depression C57BL/6J mouse model assessed as downregulation of CORT level in peripheral serum at 5 mg/kg,IG administration for 3 days by ELISA; assay type: functional, organism-based; conditions: time 3.0 day
[6] = system: Mus musculus; test: Antidepressant activity in chronic unpredictable mild stress induced depression C57BL/6J mouse model assessed as decrease in immobility time at 5 mg/kg,IG administration for 3 days by forced swimming test; assay type: functional, organism-based; conditions: time 3.0 day
[7] = system: Mus musculus; test: Antidepressant activity in chronic unpredictable mild stress induced depression C57BL/6J mouse model assessed as increase in body weight at 5 mg/kg,IG administration for 3 days; assay type: functional, organism-based; conditions: time 3.0 day
[8] = system: Mus musculus; test: Antidepressant activity in chronic unpredictable mild stress induced depression C57BL/6J mouse model assessed as change in total distance travelled at 5 mg/kg,IG administration for 3 days by open field test; assay type: functional, organism-based; conditions: time 3.0 day
[9] = system: Mus musculus; test: Antidepressant activity in chronic unpredictable mild stress induced depression C57BL/6J mouse model assessed as decrease in immobility time at 5 mg/kg,IG administration for 3 days by tail suspension test; assay type: functional, organism-based; conditions: time 3.0 day
[10] = Toxicity in chronic unpredictable mild stress induced depression C57BL/6J mouse model assessed as change in AST level in liver at 40 mg/kg,IG administration for 3 days by ELISA; assay type: organism-based; conditions: in vivo, po, 72 h, time 3 day
[11] = system: Mus musculus; test: Antidepressant activity in chronic unpredictable mild stress induced depression C57BL/6J mouse model assessed as increase in time spent in central area at 10 mg/kg,IG administration for 3 days by open field test; assay type: functional, organism-based; conditions: time 3.0 day
[12] = system: Mus musculus; test: Antidepressant activity in chronic unpredictable mild stress induced depression C57BL/6J mouse model assessed as decrease in immobility time at 5 to 20 mg/kg,IG administration for 3 days by forced swimming test; assay type: functional, organism-based; conditions: dose 5-20 mg/kg, time 3.0 day
[13] = system: Mus musculus; test: Antidepressant activity in chronic unpredictable mild stress induced depression C57BL/6J mouse model assessed as upregulation of 5-HT level in peripheral serum at 20 mg/kg,IG administration for 3 days by ELISA; assay type: functional, organism-based; conditions: time 3.0 day
[14] = system: Mus musculus; test: Antidepressant activity in chronic unpredictable mild stress induced depression C57BL/6J mouse model assessed as upregulation of TrkB phosphorylation in hippocampus at 10 mg/kg,IG administration for 3 days by Western blotting analysis; assay type: functional, organism-based; conditions: time 3.0 day
[15] = system: Mus musculus; test: Antidepressant activity in chronic unpredictable mild stress induced depression C57BL/6J mouse model assessed as increase in time spent in central area at 20 mg/kg,IG administration for 3 days by open field test; assay type: functional, organism-based; conditions: time 3.0 day
[16] = Toxicity in chronic unpredictable mild stress induced depression C57BL/6J mouse model assessed as change in ALT level in liver at 40 mg/kg,IG administration for 3 days by ELISA; assay type: organism-based; conditions: in vivo, po, 72 h, time 3 day
[17] = system: Mus musculus; test: Antidepressant activity in chronic unpredictable mild stress induced depression C57BL/6J mouse model assessed as upregulation of PKA phosphorylation in hippocampus at 20 mg/kg,IG administration for 3 days by Western blotting analysis; assay type: functional, organism-based; conditions: time 3.0 day
[18] = system: Mus musculus; test: Antidepressant activity in chronic unpredictable mild stress induced depression C57BL/6J mouse model assessed as upregulation of BDNF expression in hippocampus at 10 mg/kg,IG administration for 3 days by Western blotting analysis; assay type: functional, organism-based; conditions: time 3.0 day
[19] = system: Mus musculus; test: Antidepressant activity in chronic unpredictable mild stress induced depression C57BL/6J mouse model assessed as upregulation of GluA2 expression in hippocampus at 5 to 20 mg/kg,IG administration for 3 days by Western blotting analysis; assay type: functional, organism-based; conditions: dose 5-20 mg/kg, time 3.0 day
[20] = system: Mus musculus; test: Antidepressant activity in chronic unpredictable mild stress induced depression C57BL/6J mouse model assessed as upregulation of BDNF expression in hippocampus at 20 mg/kg,IG administration for 3 days by Western blotting analysis; assay type: functional, organism-based; conditions: time 3.0 day
[21] = Toxicity in chronic unpredictable mild stress induced depression C57BL/6J mouse model assessed as change in creatine kinase level in heart at 40 mg/kg,IG administration for 3 days by ELISA; assay type: organism-based; conditions: in vivo, po, 72 h, time 3 day
[22] = system: Mus musculus; test: Antidepressant activity in chronic unpredictable mild stress induced depression C57BL/6J mouse model assessed as increase in frequency entering the central area at 10 mg/kg,IG administration for 3 days by open field test; assay type: functional, organism-based; conditions: time 3.0 day
[23] = system: Mus musculus; test: Antidepressant activity in chronic unpredictable mild stress induced depression C57BL/6J mouse model assessed as increase in body weight at 5 to 20 mg/kg,IG administration for 3 days; assay type: functional, organism-based; conditions: dose 5-20 mg/kg, time 3.0 day
[24] = system: Mus musculus; test: Antidepressant activity in chronic unpredictable mild stress induced depression C57BL/6J mouse model assessed as change in total distance travelled at 5 to 20 mg/kg,IG administration for 3 days by open field test; assay type: functional, organism-based; conditions: dose 5-20 mg/kg, time 3.0 day
[25] = system: Mus musculus; test: Antidepressant activity in chronic unpredictable mild stress induced depression C57BL/6J mouse model assessed as downregulation of CORT level in peripheral serum at 20 mg/kg,IG administration for 3 days by ELISA; assay type: functional, organism-based; conditions: time 3.0 day
[26] = system: Mus musculus; test: Antidepressant activity in chronic unpredictable mild stress induced depression C57BL/6J mouse model assessed as upregulation of GluA1 expression in hippocampus at 5 to 20 mg/kg,IG administration for 3 days by Western blotting analysis; assay type: functional, organism-based; conditions: dose 5-20 mg/kg, time 3.0 day
[27] = system: Mus musculus; test: Antidepressant activity in chronic unpredictable mild stress induced depression C57BL/6J mouse model assessed as downregulation of CORT level in peripheral serum at 10 mg/kg,IG administration for 3 days by ELISA; assay type: functional, organism-based; conditions: time 3.0 day
[28] = system: Mus musculus; test: Antidepressant activity in chronic unpredictable mild stress induced depression C57BL/6J mouse model assessed as increase in frequency entering the central area at 20 mg/kg,IG administration for 3 days by open field test; assay type: functional, organism-based; conditions: time 3.0 day
[29] = system: Mus musculus; test: Antidepressant activity in chronic unpredictable mild stress induced depression C57BL/6J mouse model assessed as decrease in immobility time at 5 to 20 mg/kg,IG administration for 3 days by tail suspension test; assay type: functional, organism-based; conditions: dose 5-20 mg/kg, time 3.0 day
[30] = system: Mus musculus; test: Antidepressant activity in chronic unpredictable mild stress induced depression C57BL/6J mouse model assessed as upregulation of TrkB phosphorylation in hippocampus at 20 mg/kg,IG administration for 3 days by Western blotting analysis; assay type: functional, organism-based; conditions: time 3.0 day

Cn1c(C(=O)Nc2ccc(F)cc2)cc2c(C#Cc3ccc(F)cc3)ncnc21
IC50 [1]: 90.8 nM

COc1ccc(NC(=O)c2cc3c(C#Cc4ccccn4)ncnc3n2C)cc1
IC50 [1]: 922 nM

CN(C)c1ccc(NC(=O)c2cc3c(C#Cc4ccccn4)ncnc3n2C)cc1
IC50 [1]: 2470 nM

Cc1ccc(NC(=O)c2cc3c(C#Cc4ccccc4)ncnc3n2C)cc1
IC50 [1]: 38.9 nM

COc1ccc(C#Cc2ncnc3c2cc(C(=O)Nc2ccc(C(C)(C)C)cc2)n3C)cc1
IC50 [1]: 734 nM

Cn1c(C(=O)Nc2ccc(C(C)(C)C)cc2)cc2c(C#Cc3ccccc3)ncnc21
IC50 [1]: 1390 nM

COc1ccc(C#Cc2ncnc3c2cc(C(=O)Nc2ccccc2)n3C)cc1
IC50 [1]: 764 nM

COc1ccc(NC(=O)c2cc3c(C#Cc4ccc(C)cc4)ncnc3n2C)cc1
IC50 [1]: 356 nM

Cn1c(C(=O)Nc2ccc(F)cc2)cc2c(C#Cc3ccccc3)ncnc21
IC50 [1]: 63.6 nM

Cc1nc(C#Cc2ccnc(Cl)c2)c(C)n1-c1ccc(F)cc1 [BASIMGLURANT]
IC50 [1]: 4.3 nM

Cc1ccc(C#Cc2ncnc3c2cc(C(=O)Nc2ccc(N(C)C)cc2)n3C)cc1
IC50 [1]: 3760 nM

Cn1c(C(=O)Nc2ccc(C(C)(C)C)cc2)cc2c(C#Cc3ccccn3)ncnc21
IC50 [1]: 2030 nM

Cc1ccc(C#Cc2ncnc3c2cc(C(=O)Nc2ccccc2)n3C)cc1
IC50 [1]: 1380 nM

Cn1c(C(=O)Nc2ccc(C(C)(C)C)cc2)cc2c(C#Cc3ccc(F)cc3)ncnc21
IC50 [1]: 2340 nM

Cc1ccc(NC(=O)c2cc3c(C#Cc4csc(C)n4)ncnc3n2C)cc1
IC50 [1]: 5570 nM

Cc1ccc(C#Cc2ncnc3c2cc(C(=O)Nc2ccc(C(C)(C)C)cc2)n3C)cc1
IC50 [1]: > 10000 nM

Cc1ccc(C#Cc2ncnc3c2cc(C(=O)Nc2ccc(C)cc2)n3C)cc1
IC50 [1]: 947 nM

Cn1c(C(=O)Nc2ccc(I)cc2)cc2c(C#Cc3ccccc3)ncnc21
IC50 [1]: 194 nM

Cn1c(C(=O)Nc2ccc(Cl)c(Cl)c2)cc2c(C#Cc3ccccc3)ncnc21
IC50 [1]: 2030 nM

Cc1ccc(C#Cc2ncnc3c2cc(C(=O)Nc2ccc(F)cc2)n3C)cc1
IC50 [1]: 1010 nM

COc1ccc(C#Cc2ncnc3c2cc(C(=O)Nc2ccc(C)cc2)n3C)cc1
IC50 [1]: 241 nM

Cn1c(C(=O)Nc2cccc(Cl)c2)cc2c(C#Cc3ccccc3)ncnc21
IC50 [1]: 529 nM

COc1ccc(NC(=O)c2cc3c(C#Cc4ccc(F)cc4)ncnc3n2C)cc1
IC50 [1]: 15.2 nM

Cn1c(C(=O)Nc2ccccc2)cc2c(C#Cc3ccc(F)cc3)ncnc21
IC50 [1]: 62.2 nM

Cn1c(C(=O)Nc2ccc(Cl)cc2)cc2c(C#Cc3ccccc3)ncnc21
IC50 [1]: 622 nM

Cc1nc(C#Cc2ncnc3c2cc(C(=O)Nc2ccccc2)n3C)cs1
IC50 [1]: 2280 nM

COc1ccc(NC(=O)c2cc3c(C#Cc4csc(C)n4)ncnc3n2C)cc1
IC50 [1]: 236 nM

COc1ccc(C#Cc2ncnc3c2cc(C(=O)Nc2ccc(N(C)C)cc2)n3C)cc1
IC50 [1]: 824 nM

CN(C)c1ccc(NC(=O)c2cc3c(C#Cc4ccccc4)ncnc3n2C)cc1
IC50 [1]: 125 nM

Cn1c(C(=O)Nc2ccccc2)cc2c(C#Cc3ccccc3)ncnc21
IC50 [1]: 75.4 nM

COc1ccc(C#Cc2ncnc3c2cc(C(=O)Nc2ccc(OC)cc2)n3C)cc1
IC50 [1]: 84 nM

CNCCC(Oc1ccc(C(F)(F)F)cc1)c1ccccc1 (configuration not stated)
Activity [2]: Active | Activity [3]: Active | Activity [4]: Active | Activity [5]: Active | Activity [6]: Active | Activity [7]: Active | Activity [8]: inactive | Activity [9]: Active

Cc1ccc(NC(=O)c2cc3c(C#Cc4ccc(F)cc4)ncnc3n2C)cc1
IC50 [1]: 101 nM

CN(C)c1ccc(NC(=O)c2cc3c(C#Cc4ccc(F)cc4)ncnc3n2C)cc1
IC50 [1]: 135 nM

COc1ccc(NC(=O)c2cc3c(C#Cc4ccccc4)ncnc3n2C)cc1
Activity [10]: Non-Toxic | Activity [11]: Active | Activity [12]: Active | Activity [13]: Active | Activity [14]: Active | Activity [15]: Active | Activity [16]: Non-Toxic | Activity [17]: Active | Activity [18]: Active | Activity [19]: Active | Activity [20]: Active | Activity [21]: Non-Toxic | Activity [22]: Active | Activity [23]: Active | IC50 [1]: 11.5 nM | Activity [24]: inactive | Activity [25]: Active | Activity [26]: Active | Activity [27]: Active | Activity [28]: Active | Activity [29]: Active | Activity [30]: Active

Cn1c(C(=O)Nc2ccc(OC(F)(F)F)cc2)cc2c(C#Cc3ccccc3)ncnc21
IC50 [1]: 308 nM

COc1ccc(C#Cc2ncnc3c2cc(C(=O)Nc2ccc(F)cc2)n3C)cc1
IC50 [1]: 482 nM

Cn1c(C(=O)Nc2ccc(Cl)cc2)cc2c(C#Cc3ccc(F)cc3)ncnc21
IC50 [1]: 248 nM

Cn1c(C(=O)Nc2ccc(F)cc2)cc2c(C#Cc3ccccn3)ncnc21
IC50 [1]: 3180 nM
